The source of these data is patent US11884649B2, “IRE1α inhibitors and uses thereof” (The Regents of the University of California, priority 2020, dated 2024).

In one experiment the target is T1, IRE1α (Rattus norvegicus, UniProt A0A4Y1YQ52).
T1 construct: endogenous in cells; host or cells: INS-1 rat insulinoma beta cells
The experiment is described as follows: ER stress-mediated IRE1α autophosphorylation by Phos-tag SDS-PAGE in INS-1 cells (Brefeldin-A). The settings on record: various concentrations, 200 ng/μL Brefeldin-A (BFA) for 2 hours. The experiment is classed as cell-based. The protocol:
FIG. 21. […] Immunoblots for total IRE1α (bottom) from INS-1 cells treated with various concentrations of PAIR1 or KIRA9 followed by the addition of 200 ng/μL Brefeldin-A (BFA) for 2 hours. Samples were subjected to Phos-tag SDS-PAGE and % autophosphorylated IRE1α (top) was determined from the ratio of phosphorylated IRE1α relative to total IRE1α. Values shown are mean±SEM (n=3).
Treatment Conditions for Phostag Gels
INS-1 or IRE1α-overexpressing isogenic INS-1 cells were plated onto a 24-well Poly-D-Lysine coated tissue culture plate and grown for 48 hrs. Inhibitor or DMSO were added to the media and incubated for 1 hour at 37° C. with 5% CO2 prior to addition of ER stress agents. […] Cells were lysed directly into SDS loading buffer (50 mM Tris, 100 mM DTT, 2% SDS (w/v), 10% glycerol (v/v), and 0.1% bromophenol blue (w/v), pH 6.8) and boiled for five minutes prior to gel loading.
Phostag Acrylamide Gel Procedure
A phostag acrylamide gel recipe used to resolve phosphorylation of IRE1α has been previously established and this recipe was followed verbatim for this study.^91 Resolving gels were allowed to solidify (˜1.5 hr) before adding the stacking gel and comb and allowed to solidify (˜1 hr). Gels were run using Tris-Glycine-SDS running buffer (25 mM Tris, 192 mM glycine, 0.1% SDS, pH 8.3) at 100 V for 3-3.5 hours. […]

Experiment [1] has as its system lysate kinases (HEK293/HCT116 lysate mixture). The experiment is described as follows: Kinome selectivity profiling by kinobead competition. The experiment is classed as binding. The settings on record: 10 μM compound. As for the experimental part: Prior to conducting cellular studies with PAIRs, we first performed comprehensive kinome selectivity profiling using a chemical proteomic method (FIG. 4A).^41-43 To do this, we measured the ability of 1, 2, 5, 6, PAIR, and KIRA9 to compete with lysate kinases for binding to a mixture of bead-immobilized, nonselective kinase inhibitors (kinobeads). Each compound (10 μM) was incubated with a standard kinobead matrix and a HEK293/HCT116 lysate mixture and competed kinases were quantified using mass spectrometry.
Kinome Profiling and Selectivity Kinobead Enrichment Protocol
HEK293 and HCT116 cells were plated on 15 cm plates until 90% confluent and lysed into 750 μL modified RIPA buffer (50 mM Tris, 150 mM NaCl, 10 mM NaF, 1% NP40, 0.25% sodium deoxycholate, 5% glycerol, pH 7.8) containing protease inhibitor (Pierce Protease Inhibitor Tablets and 1 mM PMSF) and phosphatase inhibitor (Phosphatase inhibitor cocktail 2 and 3, Sigma Aldrich). Protein content was determined via Bradford assay. […]
Tryptic peptides were separated using a nanoAcquity UPLC instrument with 10 cm fused silica capillary columns made in house and packed with 5 μm 120 Å reverse-phase C18 beads (ReproSil-Pur®, Maisch). […] MS data was analyzed using a Thermo Orbitrap Fusion Tribrid. Raw files were analyzed using MaxQuant (Andromeda) Version 1.6.0.16. […]

T1 sequence (A0A4Y1YQ52 21-977): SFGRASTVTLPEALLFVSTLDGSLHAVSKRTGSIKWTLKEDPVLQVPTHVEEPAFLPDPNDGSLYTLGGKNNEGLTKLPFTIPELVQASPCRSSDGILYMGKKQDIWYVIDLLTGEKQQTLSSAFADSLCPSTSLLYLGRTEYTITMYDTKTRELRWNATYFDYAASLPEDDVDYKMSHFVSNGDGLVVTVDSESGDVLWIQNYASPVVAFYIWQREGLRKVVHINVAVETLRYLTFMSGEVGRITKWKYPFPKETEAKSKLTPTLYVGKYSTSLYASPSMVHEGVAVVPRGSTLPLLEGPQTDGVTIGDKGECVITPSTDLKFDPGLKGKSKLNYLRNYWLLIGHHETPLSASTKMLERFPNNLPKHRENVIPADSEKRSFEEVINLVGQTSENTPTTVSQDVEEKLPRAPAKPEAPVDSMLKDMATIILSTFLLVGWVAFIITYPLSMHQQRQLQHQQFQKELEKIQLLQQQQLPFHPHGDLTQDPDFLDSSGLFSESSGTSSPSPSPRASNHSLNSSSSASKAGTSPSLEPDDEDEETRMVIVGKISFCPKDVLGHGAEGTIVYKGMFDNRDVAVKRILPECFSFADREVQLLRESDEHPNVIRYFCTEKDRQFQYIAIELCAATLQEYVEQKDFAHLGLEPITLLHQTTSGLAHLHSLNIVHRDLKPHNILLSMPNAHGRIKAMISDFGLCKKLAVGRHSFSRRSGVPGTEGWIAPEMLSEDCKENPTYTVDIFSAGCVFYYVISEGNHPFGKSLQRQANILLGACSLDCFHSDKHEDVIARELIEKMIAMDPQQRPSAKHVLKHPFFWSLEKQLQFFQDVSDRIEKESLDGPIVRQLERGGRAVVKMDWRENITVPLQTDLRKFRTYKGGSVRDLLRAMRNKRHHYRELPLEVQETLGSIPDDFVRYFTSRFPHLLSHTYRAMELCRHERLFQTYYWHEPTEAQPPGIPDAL

On to `O=S(=O)(CC(F)(F)F)Nc1ccc(Oc2ncccc2-c2ccnc(N[C@H]3CCCNC3)n2)c2ccccc12` (stereo in doubt) [PAIR1, 2,2,2-trifluoro-N-(4-(3-(2-(piperidin-3-ylamino)pyrimidin-4-yl)pyridin-2-yloxy)naphthalen-1-yl)ethanesulfonamide], for which the IRE1α autophosphorylation entry at IRE1α is reported as “equipotently block ER stress-mediated IRE1α autophosphorylation”. Besides, in experiment [1], the kinome selectivity result is recorded as “high selectivity for IRE1α”.
Take `O=S(=O)(CCC(F)(F)F)Nc1ccc(Oc2ncccc2-c2ccnc(NC3CCCNC3)n2)c2ccccc12` (stereo not shown) [KIRA9, 3,3,3-trifluoro-N-(4-(3-(2-(piperidin-3-ylamino)pyrimidin-4-yl)pyridin-2-yloxy)naphthalen-1-yl)propane-1-sulfonamide]: the IRE1α autophosphorylation result at IRE1α is listed as “equipotently block ER stress-mediated IRE1α autophosphorylation”. For the same molecule, the kinome selectivity entry in experiment [1] is “equivalent potency and selectivity”.
